Measured values reported in the supplement of paper PMC10307832.

Tests used:
Test in all cases: relative viability (nuclei count vs DMSO), 5 days (fraction); higher = more cells survive
HCC-44 = test system: HCC-44
In short: (§1)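 Dosing by pin tool came one day after lung cancer cell lines were seeded in 1536-well plates, using either one drug or a fixed anchor-drug dose plus five library-drug doses (not always all listed) in √10 steps. After 5 days, nuclei were counted on 4× images. Relative viability is treated-well nuclei count divided by vehicle-well nuclei count, and values are medians of duplicate plates.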

NCI-H596 = test system: NCI-H596
In short: as §1

HCC-366 = test system: HCC-366
In short: as §1

NCI-H647 = test system: NCI-H647
In short: as §1

NCI-H1944 = test system: NCI-H1944
In short: as §1

NCI-H322M = test system: NCI-H322M
In short: as §1

NCI-H2023 = test system: NCI-H2023
In short: as §1

201T = test system: 201T
In short: as §1

NCI-H1734 = test system: NCI-H1734
In short: as §1

NCI-H2228 = test system: NCI-H2228
In short: as §1

NCI-H2087 = test system: NCI-H2087
In short: as §1

PC-3 [JPC-3] = test system: PC-3 [JPC-3]
In short: as §1

NCI-H1651 = test system: NCI-H1651
In short: as §1

SK-LU-1 = test system: SK-LU-1
In short: as §1

LOU-NH91 = test system: LOU-NH91
In short: as §1

HCC-78 = test system: HCC-78
In short: as §1

IA-LM = test system: IA-LM
In short: as §1

NCI-H2170 = test system: NCI-H2170
In short: as §1

LK-2 = test system: LK-2
In short: as §1

NCI-H2085 = test system: NCI-H2085
In short: as §1

NCI-H1437 = test system: NCI-H1437
In short: as §1

EBC-1 = test system: EBC-1
In short: as §1

ABC-1 = test system: ABC-1
In short: as §1

PC-14 = test system: PC-14
In short: as §1

Compound `Nc1cccc2c1CN(C1CCC(=O)NC1=O)C2=O` (centres undefined) [Lenalidomide] + CS(=O)(=O)N1CCN(Cc2cc3nc(-c4cccc5[nH]ncc45)nc(N4CCOCC4)c3s2)CC1 [Pictilisib] (partner 1 µM) has a relative viability (HCC-44; first compound 0.253 µM) of 0.525, a relative viability (HCC-44; first compound 0.8 µM) of 0.409 and a relative viability (HCC-44; first compound 2.53 µM) of 0.58. It also gave a relative viability (HCC-44; first compound 8 µM) of 0.433, a relative viability (NCI-H596; first compound 0.253 µM) of 0.382 and a relative viability (NCI-H596; first compound 0.8 µM) of 0.359. For the same compound, the relative viability (NCI-H596; first compound 2.53 µM) was 0.381, the relative viability (NCI-H596; first compound 8 µM) was 0.365 and the relative viability (HCC-366; first compound 0.253 µM) was 0.131. For the same compound, the relative viability (HCC-366; first compound 0.8 µM) was 0.108, the relative viability (HCC-366; first compound 2.53 µM) was 0.172 and the relative viability (HCC-366; first compound 8 µM) was 0.157. It also gave a relative viability (NCI-H647; first compound 0.253 µM) of 0.417, a relative viability (NCI-H647; first compound 2.53 µM) of 0.535 and a relative viability (NCI-H647; first compound 8 µM) of 0.281. For the same compound, the relative viability (NCI-H1944; first compound 0.253 µM) was 0.382, the relative viability (NCI-H1944; first compound 0.8 µM) was 0.309 and the relative viability (NCI-H1944; first compound 2.53 µM) was 0.319. For the same compound, the relative viability (NCI-H1944; first compound 8 µM) was 0.287, the relative viability (NCI-H322M; first compound 0.253 µM) was 0.511 and the relative viability (NCI-H322M; first compound 0.8 µM) was 0.596. For the same compound, the relative viability (NCI-H322M; first compound 2.53 µM) was 0.546, the relative viability (NCI-H322M; first compound 8 µM) was 0.49 and the relative viability (NCI-H2023; first compound 0.253 µM) was 0.254. It also gave a relative viability (NCI-H2023; first compound 0.8 µM) of 0.176, a relative viability (NCI-H2023; first compound 2.53 µM) of 0.268 and a relative viability (NCI-H2023; first compound 8 µM) of 0.187. It also gave a relative viability (201T; first compound 0.253 µM) of 0.72, a relative viability (201T; first compound 0.8 µM) of 0.532 and a relative viability (201T; first compound 2.53 µM) of 0.678. It also gave a relative viability (201T; first compound 8 µM) of 0.603, a relative viability (NCI-H1734; first compound 0.253 µM) of 0.438 and a relative viability (NCI-H1734; first compound 0.8 µM) of 0.489. For the same compound, the relative viability (NCI-H1734; first compound 2.53 µM) was 0.465, the relative viability (NCI-H1734; first compound 8 µM) was 0.329 and the relative viability (NCI-H2228; first compound 0.253 µM) was 0.42. It also gave a relative viability (NCI-H2228; first compound 0.8 µM) of 0.714, a relative viability (NCI-H2228; first compound 2.53 µM) of 0.724 and a relative viability (NCI-H2228; first compound 8 µM) of 0.355. It also gave a relative viability (NCI-H2087; first compound 0.253 µM) of 0.982, a relative viability (NCI-H2087; first compound 0.8 µM) of 0.436 and a relative viability (NCI-H2087; first compound 2.53 µM) of 0.972. The relative viability (NCI-H2087; first compound 8 µM) was 0.732, the relative viability (PC-3 [JPC-3]; first compound 0.253 µM) was 0.781 and the relative viability (PC-3 [JPC-3]; first compound 0.8 µM) was 0.609. It also gave a relative viability (PC-3 [JPC-3]; first compound 2.53 µM) of 0.98, a relative viability (PC-3 [JPC-3]; first compound 8 µM) of 0.734 and a relative viability (NCI-H1651; first compound 0.253 µM) of 0.674. The relative viability (NCI-H1651; first compound 0.8 µM) was 0.574, the relative viability (NCI-H1651; first compound 2.53 µM) was 0.735 and the relative viability (NCI-H1651; first compound 8 µM) was 0.691. It also gave a relative viability (SK-LU-1; first compound 0.253 µM) of 0.602, a relative viability (SK-LU-1; first compound 0.8 µM) of 0.58 and a relative viability (SK-LU-1; first compound 2.53 µM) of 0.704. It also gave a relative viability (SK-LU-1; first compound 8 µM) of 0.502, a relative viability (LOU-NH91; first compound 0.253 µM) of 0.534 and a relative viability (LOU-NH91; first compound 0.8 µM) of 0.451. For the same compound, the relative viability (LOU-NH91; first compound 2.53 µM) was 0.445, the relative viability (LOU-NH91; first compound 8 µM) was 0.502 and the relative viability (HCC-78; first compound 0.253 µM) was 0.233. The relative viability (HCC-78; first compound 0.8 µM) was 0.185, the relative viability (HCC-78; first compound 2.53 µM) was 0.232 and the relative viability (HCC-78; first compound 8 µM) was 0.174. For the same compound, the relative viability (IA-LM; first compound 0.253 µM) was 0.37, the relative viability (IA-LM; first compound 0.8 µM) was 0.375 and the relative viability (IA-LM; first compound 2.53 µM) was 0.338. The relative viability (IA-LM; first compound 8 µM) was 0.359, the relative viability (NCI-H2170; first compound 0.253 µM) was 0.344 and the relative viability (NCI-H2170; first compound 0.8 µM) was 0.264. It also gave a relative viability (NCI-H2170; first compound 2.53 µM) of 0.342, a relative viability (NCI-H2170; first compound 8 µM) of 0.259 and a relative viability (LK-2; first compound 0.253 µM) of 0.602. For the same compound, the relative viability (LK-2; first compound 2.53 µM) was 0.599, the relative viability (LK-2; first compound 8 µM) was 0.538 and the relative viability (NCI-H2085; first compound 0.253 µM) was 0.451. For the same compound, the relative viability (NCI-H2085; first compound 0.8 µM) was 0.409, the relative viability (NCI-H2085; first compound 2.53 µM) was 0.428 and the relative viability (NCI-H2085; first compound 8 µM) was 0.371. The relative viability (NCI-H1437; first compound 0.253 µM) was 0.547, the relative viability (NCI-H1437; first compound 0.8 µM) was 0.591 and the relative viability (NCI-H1437; first compound 2.53 µM) was 0.592. It also gave a relative viability (NCI-H1437; first compound 8 µM) of 0.344, a relative viability (EBC-1; first compound 0.253 µM) of 0.398 and a relative viability (EBC-1; first compound 0.8 µM) of 0.323. For the same compound, the relative viability (EBC-1; first compound 2.53 µM) was 0.498, the relative viability (EBC-1; first compound 8 µM) was 0.512 and the relative viability (ABC-1; first compound 0.253 µM) was 0.724. It also gave a relative viability (ABC-1; first compound 0.8 µM) of 0.626, a relative viability (ABC-1; first compound 2.53 µM) of 0.719 and a relative viability (ABC-1; first compound 8 µM) of 0.629. The relative viability (PC-14; first compound 0.253 µM) was 0.691, the relative viability (PC-14; first compound 0.8 µM) was 0.618 and the relative viability (PC-14; first compound 2.53 µM) was 0.719. The relative viability (PC-14; first compound 8 µM) was 0.713.
